Results taken from patent US12723063B2, “GIPR-agonist compounds” (Eli Lilly and Company, priority 2019, dated 2026).
*1 amine or outer side, *2 acyl side, *3 side chain or, on linkers, in order; H or OH if unused. Where a SMILES comes first, the peptide text is derived from it. Side-chain parts run from the residue outwards. [ ]: non-standard residue; d: D form. The star is where a group is joined. C20 diacid = O=C(O)CCCCCCCCCCCCCCCCCCC(=O)*; C18 diacid = O=C(O)CCCCCCCCCCCCCCCCC(=O)*; αMePhe(2-F) = C[C@](N)(Cc1ccccc1F)C(=O)O; γGlu = O=C(O)[C@H](CCC(=O)[*:2])N[*:1]; 4Pal = N[C@@H](Cc1ccncc1)C(=O)O; αMeL = CC(C)C[C@](C)(N)C(=O)O; Orn = NCCC[C@H](N)C(=O)O; AEEA = NCCOCCOCC(=O)O; Aib = CC(C)(N)C(=O)O

Target: T1, human GLP-1R (Homo sapiens, UniProt P43220)
T1 construct: expressed in transfected cells; crude membranes
T1 sequence (P43220 24-463): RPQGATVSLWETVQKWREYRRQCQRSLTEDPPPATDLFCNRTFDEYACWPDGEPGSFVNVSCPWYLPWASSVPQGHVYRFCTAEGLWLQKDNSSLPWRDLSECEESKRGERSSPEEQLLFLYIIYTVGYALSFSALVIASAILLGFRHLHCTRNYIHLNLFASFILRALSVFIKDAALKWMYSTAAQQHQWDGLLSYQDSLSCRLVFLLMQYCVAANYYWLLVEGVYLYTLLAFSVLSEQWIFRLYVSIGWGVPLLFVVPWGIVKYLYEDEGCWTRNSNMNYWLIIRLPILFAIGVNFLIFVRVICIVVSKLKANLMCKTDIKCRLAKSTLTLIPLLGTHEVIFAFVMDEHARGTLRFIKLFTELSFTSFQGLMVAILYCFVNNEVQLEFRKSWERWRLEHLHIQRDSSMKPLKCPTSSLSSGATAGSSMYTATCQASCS
Assay: [125I]-GLP-1 binding, SPA with WGA beads, 0.1% bacitracin
Settings: geometric mean, read-out: hGLP1R Ki
How it was run: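 Binding buffer was 25 mM HEPES pH 7.4 with 2.5 mM CaCl2, 1 mM MgCl2, 0.1% (w/v) bacitracin, 0.003% Tween-20 and EDTA-free protease inhibitors. Four-parameter regression gave IC50, converted to Ki (geometric mean, SEM, n independent days).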

SMILES | Ki [nM]
CC[C@H](C)[C@H](NC(=O)[C@H](CCCCN)NC(=O)[C@H](CC(=O)O)NC(=O)[C@H](CC(C)C)NC(=O)[C@](C)(CC(C)C)NC(=O)[C@@H](NC(=O)[C@H](CO)NC(=O)[C@H](Cc1ccc(O)cc1)NC(=O)[C@H](CC(=O)O)NC(=O)[C@H](CO)NC(=O)[C@@H](NC(=O)[C@H](Cc1ccccc1)NC(=O)[C@@H](NC(=O)CNC(=O)[C@H](CCC(=O)O)NC(=O)C(C)(C)NC(=O)[C@@H](N)Cc1ccc(O)cc1)[C@@H](C)O)[C@@H](C)CC)[C@@H](C)CC)C(=O)N[C@@H](Cc1c[nH]cn1)C(=O)N[C@@H](CCC(N)=O)C(=O)NC(C)(C)C(=O)N[C@@H](CC(=O)O)C(=O)N[C@@H](Cc1ccccc1)C(=O)N[C@H](C(=O)N[C@@H](CCC(=O)O)C(=O)N[C@@H](Cc1ccc(O)cc1)C(=O)N[C@@H](CCCCNC(=O)COCCOCCNC(=O)COCCOCCNC(=O)CC[C@H](NC(=O)CCCCCCCCCCCCCCCCCCC(=O)O)C(=O)O)C(=O)N[C@@H](CC(C)C)C(=O)N[C@@H](CCC(=O)O)C(=O)N[C@@H](CCC(N)=O)C(=O)NCC(=O)N1CCC[C@H]1C(=O)N[C@@H](CO)C(=O)N[C@@H](CO)C(=O)NCC(=O)N[C@@H](C)C(=O)N1CCC[C@H]1C(=O)N1CCC[C@H]1C(=O)N1CCC[C@H]1C(=O)N[C@@H](CO)C(N)=O)C(C)C [Example 92] (H-Y[Aib]EGTFISDYSI[αMeL]LDKIHQ[Aib]DFVEYK([AEEA-AEEA-γGlu-C20 diacid])LEQGPSSGAPPPS-NH2) | > 902
CC[C@H](C)[C@H](NC(=O)[C@H](CO)NC(=O)[C@H](Cc1ccc(O)cc1)NC(=O)[C@H](CC(=O)O)NC(=O)[C@H](CO)NC(=O)[C@@H](NC(=O)[C@](C)(Cc1ccccc1F)NC(=O)[C@@H](NC(=O)CNC(=O)[C@H](CCC(=O)O)NC(=O)C(C)(C)NC(=O)[C@@H](N)Cc1ccc(O)cc1)[C@@H](C)O)[C@@H](C)CC)C(=O)N[C@@H](CC(C)C)C(=O)N[C@@H](CC(C)C)C(=O)N[C@@H](CC(=O)O)C(=O)N[C@@H](CCCCN)C(=O)N[C@H](C(=O)N[C@@H](Cc1c[nH]cn1)C(=O)N[C@@H](CCC(N)=O)C(=O)NC(C)(C)C(=O)N[C@@H](CC(=O)O)C(=O)N[C@@H](Cc1ccccc1)C(=O)N[C@H](C(=O)N[C@@H](CCC(=O)O)C(=O)N[C@@H](Cc1ccncc1)C(=O)N[C@@H](CCCCNC(=O)COCCOCCNC(=O)COCCOCCNC(=O)CC[C@H](NC(=O)CCCCCCCCCCCCCCCCCCC(=O)O)C(=O)O)C(=O)N[C@@H](CC(C)C)C(=O)N[C@@H](CCC(=O)O)C(=O)N[C@@H](CCC(N)=O)C(=O)NCC(=O)N1CCC[C@H]1C(=O)N[C@@H](CO)C(=O)N[C@@H](CO)C(=O)NCC(=O)N[C@@H](C)C(=O)N1CCC[C@H]1C(=O)N1CCC[C@H]1C(=O)N1CCC[C@H]1C(=O)N[C@@H](CO)C(N)=O)C(C)C)[C@@H](C)CC [Example 121] (H-Y[Aib]EGT[αMePhe(2-F)]ISDYSILLDKIHQ[Aib]DFVE[4Pal]K([AEEA-AEEA-γGlu-C20 diacid])LEQGPSSGAPPPS-NH2) | > 912
CC[C@H](C)[C@H](NC(=O)[C@H](CCCN)NC(=O)[C@H](CC(=O)O)NC(=O)[C@H](CC(C)C)NC(=O)[C@](C)(CC(C)C)NC(=O)[C@@H](NC(=O)[C@H](CO)NC(=O)[C@H](Cc1ccc(O)cc1)NC(=O)[C@H](CC(=O)O)NC(=O)[C@H](CO)NC(=O)[C@@H](NC(=O)[C@H](Cc1ccccc1)NC(=O)[C@@H](NC(=O)CNC(=O)[C@H](CCC(=O)O)NC(=O)C(C)(C)NC(=O)[C@@H](N)Cc1ccc(O)cc1)[C@@H](C)O)[C@@H](C)CC)[C@@H](C)CC)C(=O)N[C@@H](Cc1c[nH]cn1)C(=O)N[C@@H](CCC(N)=O)C(=O)NC(C)(C)C(=O)N[C@@H](CC(=O)O)C(=O)N[C@@H](Cc1ccccc1)C(=O)N[C@H](C(=O)N[C@@H](CCC(=O)O)C(=O)N[C@@H](Cc1ccncc1)C(=O)N[C@@H](CCCCNC(=O)COCCOCCNC(=O)COCCOCCNC(=O)CC[C@H](NC(=O)CCCCCCCCCCCCCCCCCCC(=O)O)C(=O)O)C(=O)N[C@@H](CC(C)C)C(=O)N[C@@H](CCC(=O)O)C(=O)NCC(=O)NCC(=O)N1CCC[C@H]1C(=O)N[C@@H](CO)C(=O)N[C@@H](CO)C(=O)NCC(=O)N[C@@H](C)C(=O)N1CCC[C@H]1C(=O)N1CCC[C@H]1C(=O)N1CCC[C@H]1C(=O)N[C@@H](CO)C(N)=O)C(C)C [Example 108] (H-Y[Aib]EGTFISDYSI[αMeL]LD[Orn]IHQ[Aib]DFVE[4Pal]K([AEEA-AEEA-γGlu-C20 diacid])LEGGPSSGAPPPS-NH2) | > 910
CC[C@H](C)[C@H](NC(=O)[C@H](CCCN)NC(=O)[C@H](CC(=O)O)NC(=O)[C@H](CC(C)C)NC(=O)[C@](C)(CC(C)C)NC(=O)[C@@H](NC(=O)[C@H](CO)NC(=O)[C@H](Cc1ccc(O)cc1)NC(=O)[C@H](CC(=O)O)NC(=O)[C@H](CO)NC(=O)[C@@H](NC(=O)[C@H](Cc1ccccc1)NC(=O)[C@@H](NC(=O)CNC(=O)[C@H](CCC(=O)O)NC(=O)C(C)(C)NC(=O)[C@@H](N)Cc1ccc(O)cc1)[C@@H](C)O)[C@@H](C)CC)[C@@H](C)CC)C(=O)N[C@@H](Cc1c[nH]cn1)C(=O)N[C@@H](CCC(N)=O)C(=O)NC(C)(C)C(=O)N[C@@H](CCC(=O)O)C(=O)N[C@@H](Cc1ccccc1)C(=O)N[C@H](C(=O)N[C@@H](CCC(=O)O)C(=O)N[C@@H](Cc1ccncc1)C(=O)N[C@@H](CCCCNC(=O)COCCOCCNC(=O)COCCOCCNC(=O)CC[C@H](NC(=O)CCCCCCCCCCCCCCCCCCC(=O)O)C(=O)O)C(=O)N[C@@H](CC(C)C)C(=O)N[C@@H](CCC(=O)O)C(=O)N[C@@H](C)C(=O)NCC(=O)N1CCC[C@H]1C(=O)N[C@@H](CO)C(=O)N[C@@H](CO)C(=O)NCC(=O)N[C@@H](C)C(=O)N1CCC[C@H]1C(=O)N1CCC[C@H]1C(=O)N1CCC[C@H]1C(=O)N[C@@H](CO)C(N)=O)C(C)C [Example 122] (H-Y[Aib]EGTFISDYSI[αMeL]LD[Orn]IHQ[Aib]EFVE[4Pal]K([AEEA-AEEA-γGlu-C20 diacid])LEAGPSSGAPPPS-NH2) | > 913
CC[C@H](C)[C@H](NC(=O)[C@H](CCCCN)NC(=O)[C@H](CC(=O)O)NC(=O)[C@H](CC(C)C)NC(=O)[C@H](CC(C)C)NC(=O)[C@@H](NC(=O)[C@H](CO)NC(=O)[C@H](Cc1ccc(O)cc1)NC(=O)[C@H](CC(=O)O)NC(=O)[C@H](CO)NC(=O)[C@@H](NC(=O)[C@H](Cc1ccccc1)NC(=O)[C@@H](NC(=O)CNC(=O)[C@H](CCC(=O)O)NC(=O)[C@@H](C)NC(=O)[C@@H](N)Cc1ccc(O)cc1)[C@@H](C)O)[C@@H](C)CC)[C@@H](C)CC)C(=O)N[C@@H](C)C(=O)N[C@@H](CCC(N)=O)C(=O)NC(C)(C)C(=O)N[C@@H](CC(=O)O)C(=O)N[C@@H](Cc1ccccc1)C(=O)N[C@H](C(=O)N[C@@H](CC(N)=O)C(=O)N[C@@H](Cc1c[nH]c2ccccc12)C(=O)N[C@@H](CCCCNC(=O)COCCOCCNC(=O)COCCOCCNC(=O)CC[C@H](NC(=O)CCCCCCCCCCCCCCCCC(=O)O)C(=O)O)C(=O)N[C@@H](CC(C)C)C(=O)N[C@@H](C)C(=O)N[C@@H](CCC(N)=O)C(=O)NCC(=O)N1CCC[C@H]1C(=O)N[C@@H](CO)C(=O)N[C@@H](CO)C(=O)NCC(=O)N[C@@H](C)C(=O)N1CCC[C@H]1C(=O)N1CCC[C@H]1C(=O)N1CCC[C@H]1C(=O)N[C@@H](CO)C(N)=O)C(C)C [Example 93] (H-Y[dA]EGTFISDYSILLDKIAQ[Aib]DFVNWK([AEEA-AEEA-γGlu-C18 diacid])LAQGPSSGAPPPS-NH2) | > 909
